Source: patent US7282215B2, “Supports for photosensitizer formulations” (The University of British Columbia, priority 2000, dated 2007)

What was measured:
[1] = pH studies of copolymer formulations; assay type: physicochemical; conditions: acidification
From the text: Counteracting the oily nature of P123 could be achieved by incorporation of copolymer that is in solid form at room temperature. The use of 1% w/w F127 with 9% w/v P123 instead of 10% P123 (w/v) produced a thin film, which was more readily hydrated. […] This necessitates hydration of the solid drug-polymer with a very mild buffer to counteract acidification which occurs upon use of sterile packed distilled water as commonly practiced in clinical settings. Behavior of poloxamers is unaffected by pH, and the use of buffers would be entirely dependent on ionizable groups present on the drug substance.

[2] = test system: arthritis in the MRL/1pr mouse; assay: Transcutaneous PDT of arthritis, ankle width; assay type: in vivo; conditions: 0.5 mg/kg i.v.
Description: Arthritis in the MRL/1pr mouse strain was enhanced by giving 2 intradermal injections (thoracic and inguinal sites) with 0.05 ml of complete Freunds adjuvant containing 10 mg/ml heat-inactivated M. tuberculosis. PDT was given on days 0, 10 and 20 following CFA treatment. PDT was carnied out as follows; 3 groups of MRL/1pr mice were injected intravenously with B-B3 at 0.5 mg/kg (copolymer or liposomal formulations), after which they were protected from light. The third group was injected with copolymer alone at an equivalent copolymer concentration to that found in the formulation. An hour later, they were exposed to light at 80 J/cm^2 for […] (8 mW/cm^2).
Ankle width measurements were taken every 5 days prior to PDT treatment.

[3] = Vesicle size of liposomal BPD-MA (conventional and lactose micro-thin film); assay type: physicochemical
Description: For the standard laboratory preparation the liposomal bilayer components of 20 mg BPD-MA, 65 mg egg phosphatidyl glycerol (EPG) and 94 mg dimyristoyl phosphatidylcholine (DMPC), are combined in a round bottom flask and dissolved in 10 ml methylene dichloride (CH2Cl2). […]. The solvent is removed using standard rotary evaporation (Rotavapor R-124 and Buchi B171 Vacobox pump) leaving a thin film of the bilayer components on the flask wall. Once the thin film is prepared, it is hydrated using 10 ml iso-osmolar lactose (10% w/v) to give a final concentration of 2 mg/ml BPD-MA. Size reduction is carried out by consecutive extrusions through 400 nm, 200 nm, and finally 100 nm pore polycarbonate membranes (5 times through each) under high pressure. […] The final product was lyophilized and can be reconstituted prior to use by addition of water.
10 mg BPD-MA was combined with 32.5 mg phosphatidyl glycerol (EPG) and 47 mg dimyristoyl phosphatidylcholine (DMPC), and dissolved in 5 ml CH2Cl2. 2.5 ml of this solution (containing 5 mg BPD-MA) was then added to […] lactose in a rotary evaporator flask. The solvent was removed under rotary evaporation at 50° C. The film deposited on the glass wall was hydrated by addition of 2.5 ml warm distilled water (60° C.) with swirling. The hydrated material was examined under the microscope. Size reduction was carried out by extrusion of the hydrated material through 400, 200 and 100 nm pore polycarbonate membranes (5× through each) as described in Example 20.
In this experiment the effect of replacing CH2Cl2 with ethanol as a solvent for the sugar proliposomal formulation of photosensitizer and phospholipids was examined. The experiment was carried out as described in Example 21 except with the following changes: 20 mg BPD-MA was combined with 65 mg EPG and 94 mg DMPC, and dissolved in a total volume of 20 ml ethanol with occasional warming in 50° C. water bath. Ethanol was removed under rotary evaporation at 50° C., leaving BPD-MA/lipid coated lactose crystals evenly deposited onto flask wall. Flask was removed from the temperature bath, and left under vacuum for 10 min. The contents of the flask were scraped and hydrated by addition of 10 ml distilled water (60° C.) with swirling. The hydrated material was examined under the microscope and the MLV diameter was measured using laser light scattering on a NICOMP™ 370 Submicron Particle Sizer. Extrusion was then carried out as described in Example 20.
The experimental procedure was carried out was as described in Example 22, with the exception of the following changes. The liposomal bilayer constituents, 32.5 mg of EPG and 47 mg of DMPC, were dissolved in 2 ml ethanol, instead of 20 ml. The solution was warmed to 50° C. in a water bath. This was followed by addition of 10 mg BPD-MA, and the total volume was made up to 4 ml to ensure complete dissolution (2.5 mg/ml final concentration). 0.5 g of lactose was added to the round bottom flask. The solvent was removed by rotary evaporation, and the flask removed from the water bath, and left under vacuum for 1.5 h. For hydration, 5 ml of pre-warmed distilled water (60° C.) was added to flask with swirling. Extrusion of the solution and sizing of the vesicles was carried out as described in Example 22.

[4] = BPD-MA/F127 deposited on lactose: hydration and 0.2 μm filtration; assay type: physicochemical; conditions: 5% w/v and 10% w/v F127 deposited on lactose, hydrated in water
Description: In this experiment the deposition of the photosensitizer BPD-MA with the block copolymer Pluronic® F127 onto the sugar lactose was examined. Formulations containing 5% (w/v) and a 10% (w/v) F127 were tested. 0.5 g lactose and 10 mg BPD-MA were added to two rotary evaporation flasks. A stock solution of […] F127 was prepared in CH2Cl2. 1.25 ml (for 5% w/v) and 2.5 ml (for 10% w/v) F127 stock solution was added to each flask. The final volume in each flask was made up to 5.0 ml with CH2Cl2 and the components mixed to ensure complete dissolution. The solvent was removed by rotary evaporation at 50° C., and the flask left under vacuum for a further 15 min at 23° C. Micro-thin film deposits were scraped from the walls and hydrated in 5 ml water at 50° C. The formulations were filtered twice using 0.2 μm syringe filters (Acrodisc, polysulphone).

[5] = liposomal formulation, light 80 J/cm^2

SMILES | pH dependency of formulation stability [1] | Control of inflammation (increase in ankle swelling) ([2]; copolymer formulation, light 80 J/cm^2 1 h later, PDT days 0, 10, 20) | Control of inflammation (ankle swelling), after day 25 [2, 5] | Control of inflammation (ankle swelling), earlier part of the study [2, 5] | Diameter of MLVs ([3]; hydration of conventional thin films) [μm] | Mean diameter of the MLVs ([3]; lactose micro-thin film from ethanol, 92.44% by volume) [nm] | Diameter of unilamellar vesicles after extrusion, smaller population ([3]; lactose micro-thin film, 20 ml ethanol, 23.17% by volume) [nm] | Diameter of unilamellar vesicles after extrusion, larger population ([3]; lactose micro-thin film, 20 ml ethanol, 76.83% by volume) [nm] | Mean diameter of unilamellar vesicles, smaller population ([3]; lactose micro-thin film, reduced ethanol volume, 29.49% by volume) [nm] | Mean diameter of unilamellar vesicles, larger population ([3]; lactose micro-thin film, reduced ethanol volume, 70.5% by volume) [nm] | Drug loss on filtration through 0.2 μm filters [4]
C=Cc1c(C)c2cc3nc(cc4[nH]c(cc5nc(cc1[nH]2)C1(C)C5=CC=C(C(=O)O)C1C(=O)OC)c(C)c4CCC(=O)OC)C(CCC(=O)OC)=C3C (centres unmarked) [B-B3] | detrimental to formulation stability | highly effective in controlling the inflammation | exacerbation of the inflammatory condition | better suppression of the inflammation compared to the controls |  |  |  |  |  |  | 
C=Cc1c(C)c2cc3nc(cc4[nH]c(cc5nc(cc1[nH]2)C(C)=C5CCC(=O)O)c(CCC(=O)OC)c4C)[C@@]1(C)C3=CC=C(C(=O)OC)[C@H]1C(=O)OC [BPD-MA, benzoporphyrin derivative mono-acid-ring A, reference compound] |  |  |  |  | > 1 | 690 | 47.9 | 110.4 | 58.4 | 132.4 | no drug loss
